Converted amounts (≈) assume the structure as drawn.
Key:
[1] = Inhibition of human mitochondrial ribosome Mit 13 hybridized with Mycobacterium smegmatis ribosome assessed as inhibition of translation activity using Firefly luciferase mRNA reporter based luminescence analysis
Pseudomonas aeruginosa [2] = test: Antibacterial activity against Pseudomonas aeruginosa clinical isolate AG032; assay type: functional
Escherichia coli [3] = test: Antibacterial activity against Escherichia coli clinical isolate AG003; assay type: functional
Pseudomonas aeruginosa [4] = test: Antibacterial activity against Pseudomonas aeruginosa clinical isolate AG033; assay type: functional
[5] = Inhibition of human cytoplasmic ribosome Cyt 14 hybridized with Mycobacterium smegmatis ribosome assessed as inhibition of translation activity using Firefly luciferase mRNA reporter based luminescence analysis
Pseudomonas aeruginosa [6] = test: Antibacterial activity against Pseudomonas aeruginosa clinical isolate AG031; assay type: functional
[7] = tested on: human mitochondrial ribosome A1555G mutant (Mit 13 A1555G hybrid); test: Selectivity ratio of IC50 for inhibition of human mitochondrial ribosome Mit 13 A1555G mutant hybridized with Mycobacterium smegmatis ribosomes to IC50 for inhibition of Mycobacterium smegmatis wild type ribosomes; assay type: toxicity; conditions: read-out: Ratio IC50
Staphylococcus aureus [8] = test: Antibacterial activity against methicillin-resistant Staphylococcus aureus clinical isolate AG039; assay type: functional
Escherichia coli [9] = test: Antibacterial activity against Escherichia coli clinical isolate AG001; assay type: functional
Staphylococcus aureus [10] = test: Antibacterial activity against methicillin-resistant Staphylococcus aureus clinical isolate AG042 harboring with ANT4',4\" gene; assay type: functional
Staphylococcus aureus [11] = test: Antibacterial activity against methicillin-resistant Staphylococcus aureus clinical isolate AG038; assay type: functional
[12] = tested on: human cytoplasmic ribosome (Cyt 14 hybrid); test: Selectivity ratio of IC50 for inhibition of human cytoplasmic ribosome Cyt 14 hybridized with Mycobacterium smegmatis ribosomes to IC50 for inhibition of Mycobacterium smegmatis wild type ribosomes; assay type: toxicity; conditions: read-out: Ratio IC50
Bacterial 70S ribosome = test: Inhibition of Mycobacterium smegmatis wild type ribosomes assessed as inhibition of translation activity using Firefly luciferase mRNA reporter based luminescence analysis; assay type: subcellular, Mycolicibacterium smegmatis
[13] = Inhibition of human mitochondrial ribosome Mit 13 A1555G mutant hybridized with Mycobacterium smegmatis ribosome assessed as inhibition of translation activity using Firefly luciferase mRNA reporter based luminescence analysis
Escherichia coli [14] = test: Antibacterial activity against Escherichia coli clinical isolate AG055; assay type: functional
[15] = tested on: human mitochondrial ribosome (Mit 13 hybrid); test: Selectivity ratio of IC50 for inhibition of human mitochondrial ribosome Mit 13 hybridized with Mycobacterium smegmatis ribosome to IC50 for inhibition of Mycobacterium smegmatis wild type ribosomes; assay type: toxicity; conditions: read-out: Ratio IC50

Row | SMILES | IC50 [1] [µM] | MIC (Pseudomonas aeruginosa [2]) [µg/mL] | MIC (Escherichia coli [3]) [µg/mL] | MIC (Pseudomonas aeruginosa [4]) [µg/mL] | IC50 [5] [µM] | MIC (Pseudomonas aeruginosa [6]) [µg/mL] | selectivity ratio [7] | MIC (Staphylococcus aureus [8]) [µg/mL] | MIC (Escherichia coli [9]) [µg/mL] | MIC (Staphylococcus aureus [10]) [µg/mL] | MIC (Staphylococcus aureus [11]) [µg/mL] | selectivity ratio [12] | IC50 (Bacterial 70S ribosome) [µM] | IC50 [13] [µM] | MIC (Escherichia coli [14]) [µg/mL] | selectivity ratio [15]
1 | CCN[C@@H]1C[C@H](N)[C@@H](O[C@H]2OC(CN)=C(Br)C[C@H]2N)[C@H](O)[C@H]1O[C@H]1OC[C@](C)(O)[C@H](NC)[C@H]1O | 52 | 8 (≈ 14.4 µM) | 16 (≈ 28.9 µM) | 64 (≈ 115 µM) | 146 | 8 (≈ 14.4 µM) | 12 | 8 to 16 (≈ 14.4 to 28.9 µM) | 2 (≈ 3.61 µM) | 64 (≈ 115 µM) | 4 (≈ 7.21 µM) | 1460 | 0.1 | 1.2 | 1 to 2 (≈ 1.8 to 3.61 µM) | 520
2 | CCN[C@@H]1C[C@H](N)[C@@H](O[C@H]2OC(CN)=C(SCC)C[C@H]2N)[C@H](O)[C@H]1O[C@H]1OC[C@](C)(O)[C@H](NC)[C@H]1O | 256 | 128 (≈ 239 µM) | 8 to 16 (≈ 14.9 to 29.9 µM) | > 128 | 783 | > 128 | 69 | 32 (≈ 59.7 µM) | 16 (≈ 29.9 µM) | 128 (≈ 239 µM) | 32 (≈ 59.7 µM) | 1160 | 0.67 | 46 | 8 to 16 (≈ 14.9 to 29.9 µM) | 381
3 | CCN[C@@H]1C[C@H](N)[C@@H](O[C@H]2OC(CN)=C(c3ccccc3)C[C@H]2N)[C@H](O)[C@H]1O[C@H]1OC[C@](C)(O)[C@H](NC)[C@H]1O | 29 | 16 to 32 (≈ 29 to 58 µM) | 64 (≈ 116 µM) | > 64 | 81 | 16 to 32 (≈ 29 to 58 µM) | 13 | 16 (≈ 29 µM) | 4 (≈ 7.25 µM) | 64 (≈ 116 µM) | 8 (≈ 14.5 µM) | 299 | 0.27 | 3.5 | 2 (≈ 3.63 µM) | 106
4 | CCS[C@H]1[C@H](O)[C@@H](N)[C@@H](O[C@H]2[C@H](O[C@@H]3O[C@H](CO)[C@@H](O[C@H]4O[C@@H](CN)[C@@H](O)[C@H](O)[C@H]4N)[C@H]3O)[C@@H](O)[C@H](N)C[C@@H]2N)O[C@@H]1CO | 166 | – | – | – | 104 | – | 1430 | – | – | – | – | 1960 | 0.053 | 76 | – | 3130
5 | CCCCC1=C(CN)O[C@H](O[C@H]2[C@H](O)[C@@H](O[C@H]3OC[C@](C)(O)[C@H](NC)[C@H]3O)[C@H](NCC)C[C@@H]2N)[C@H](N)C1 | 408 | 64 (≈ 120 µM) | 8 to 16 (≈ 15 to 30.1 µM) | > 128 | 940 | 64 (≈ 120 µM) | 37 | 16 (≈ 30.1 µM) | 8 to 16 (≈ 15 to 30.1 µM) | 64 (≈ 120 µM) | 16 (≈ 30.1 µM) | 1610 | 0.58 | 22 | 5 (≈ 9.4 µM) | 699
6 | CCN[C@@H]1C[C@H](N)[C@@H](O[C@H]2OC(CN)=C(Cl)C[C@H]2N)[C@H](O)[C@H]1O[C@H]1OC[C@](C)(O)[C@H](NC)[C@H]1O | 58 | 64 (≈ 125 µM) | 16 to 32 (≈ 31.4 to 62.7 µM) | > 128 | > 500 | 4 (≈ 7.84 µM) | 15 | 8 (≈ 15.7 µM) | 4 (≈ 7.84 µM) | 32 (≈ 62.7 µM) | 4 (≈ 7.84 µM) | > 5000 | 0.1 | 1.5 | 2 to 4 (≈ 3.92 to 7.84 µM) | 580
7 | CCC[C@H]1[C@H](O)[C@@H](N)[C@@H](O[C@H]2[C@H](O[C@@H]3O[C@H](CO)[C@@H](O[C@H]4O[C@@H](CN)[C@@H](O)[C@H](O)[C@H]4N)[C@H]3O)[C@@H](O)[C@H](N)C[C@@H]2N)O[C@@H]1CO | 167 | – | – | – | 64 | – | 1680 | – | – | – | – | 2060 | 0.031 | 52 | – | 5390
8 | CCN[C@@H]1C[C@H](N)[C@@H](O[C@H]2OC(CN)=C(I)C[C@H]2N)[C@H](O)[C@H]1O[C@H]1OC[C@](C)(O)[C@H](NC)[C@H]1O | 49 | 4 to 8 (≈ 6.65 to 13.3 µM) | 16 (≈ 26.6 µM) | > 128 | 221 | 4 to 8 (≈ 6.65 to 13.3 µM) | 15 | 16 (≈ 26.6 µM) | 2 (≈ 3.33 µM) | 64 (≈ 106 µM) | 4 to 8 (≈ 6.65 to 13.3 µM) | 2210 | 0.1 | 1.5 | 1 to 2 (≈ 1.66 to 3.33 µM) | 490
9 | CCN[C@@H]1C[C@H](N)[C@@H](O[C@H]2OC(CN)=CC[C@H]2N)[C@H](O)[C@H]1O[C@H]1OC[C@](C)(O)[C@H](NC)[C@H]1O [NETILMICIN] | 28 | 2 (≈ 4.21 µM) | 8 (≈ 16.8 µM) | > 128 | 69 | 2 (≈ 4.21 µM) | 35 | 0.5 (≈ 1.05 µM) | 2 (≈ 4.21 µM) | 2 (≈ 4.21 µM) | 0.5 (≈ 1.05 µM) | 3450 | 0.02 | 0.7 | 2 (≈ 4.21 µM) | 1400
10 | NC[C@@H]1O[C@H](O[C@H]2[C@@H](O)[C@H](O[C@@H]3[C@@H](O)[C@H](N)C[C@H](N)[C@H]3O[C@H]3O[C@H](CO)[C@@H](O)[C@H](O)[C@H]3N)O[C@@H]2CO)[C@H](N)[C@@H](O)[C@@H]1O [PAROMOMYCIN] | 142 | – | – | – | 31 | – | 315 | – | – | – | – | 816 | 0.038 | 12 | – | 3740
